This note sets out measurements from US7115650B1, “Compositions for improving fertility” (Ferring BV, priority 1999, dated 2006).

What all share (assay type): in vivo, rat
In assay [1] the test system is obese Zucker Diabetic Fatty (ZDF) female rats. In words: Estrous cyclicity by observation of vaginal smear in animal model of human infertility. Conditions: oral 10 mg/kg/day, untreated obese females had abnormal cyclicity vs lean. As for the experimental part: (§1) Obese Zucker Diabetic Fatty males and females as well as fertile lean males and females were put into individual cages and fed with Purina 5008 (6.5% fat). At 6.5 weeks of life, obese rats were randomized into 3 groups: • 1. Control group—obese ZDF rats (n=8) treated with vehicle. • 2. Once-daily treatment group—obese ZDF rats (n=8) given the compound of Example 1B orally once daily (10 mg/kg/day). • 3. Twice-daily treatment group—obese ZDF rats (n=8) given the compound of Example 1B orally twice daily (10 mg/kg/day). Methods
(§2) Blood and pituitaries of lean and obese rats were collected at the end of the study. Pituitary LH and plasma testosterone concentrations were measured by radioimmunoassay. Estrous cyclicity was evaluated by observation of vaginal smear.

For assay [2], the system named is obese Zucker Diabetic Fatty (ZDF) rats. Briefly: Pituitary LH content by radioimmunoassay in animal model of human infertility. The following applies: treated obese ZDF rats, oral 10 mg/kg/day, end of study; obese control 8.1±0.6, lean 6.3±0.6; p<0.05 vs control. The protocol: as §1, §2
Assay [3] deals with obese Zucker Diabetic Fatty (ZDF) male rats. In words: Plasma testosterone by radioimmunoassay in animal model of human infertility. The following applies: treated obese ZDF males, oral 10 mg/kg/day, end of study; obese 1145±328, lean 2410±239; NS vs lean. The protocol:
as §1, §2

On to `CC(C)(C)[C@H](N)C(=O)N1CCC[C@H]1C#N` [Example 1B, (2S)-N-((2′S)-2′-amino-3′,3′-dimethylbutanoyl)pyrrolidine-2-carbonitrile], for which the Estrous cyclicity result in assay [1] is listed as “normalised estrous cyclicity”. In addition, in assay [2], the “Pituitary LH content” value is listed as 5.2±0.4 μg/pituitary. In addition, the Plasma testosterone level in assay [3] amounted to 2390 ± 759 pg/mL.
